For one test, the target named is human orexin 1 receptor (Homo sapiens, UniProt O43613). Kind of test: Human orexin 1 receptor radioligand binding. The settings on record: read-out: hOX1 Ki. The procedure: (§1) Data are analyzed using pc-Sandy macro and graphed on Graphpad Prism 5. For analysis, each concentration point is averaged from triplicate values and the averaged values are plotted on Graphpad Prism. The IC50 was determined by applying the following equation (GraphPad Prism 5.0, SanDiego) for one site competition where X=log (concentration) and Y=specific binding. Top denotes the total [^3H]-(1-(5-(2-fluoro-phenyl)-2-methyl-thiazol-4-yl)-1-((S)-2-(5-phenyl-(1,3,4)oxadiazol-2-ylmethyl)-pyrrolidin-1-yl)-methanone) binding, bottom denotes the nonspecific [^3H]-(1-(5-(2-fluoro-phenyl)-2-methyl-thiazol-4-yl)-1-((S)-2-(5-phenyl-(1,3,4)oxadiazol-2-ylmethyl)-pyrrolidin-1-yl)-methanone) binding. Graphpad Prism calculates Ki value from IC50 and the pre-determined Kd values for [^3H]-(1-(5-(2-fluoro-phenyl)-2-methyl-thiazol-4-yl)-1-((S)-2-(5-phenyl-(1,3,4)oxadiazol-2-ylmethyl)-pyrrolidin-1-yl)-methanone) and [3H]-EMPA. The Ki for each compound is then uploaded into 3DX. Each run comprises individual compounds in triplicate. The data in Table 1 and Table 2 represent averages from between 2-20 runs
(§2) Rat and Human Orexin 1 Receptor Radioligand Binding Studies
(§3) After centrifugation (2K×G, 5 min at 4° C.), the supernatant was aspirated and the pellets frozen and stored at −80° C. […] Each cell pellet from a 15 cm plate was resuspended in 10 mL, stored on ice, and homogenized for 45 sec prior to addition to the reactions. […] The final concentration of DMSO in the reactions is equal to or less than 0.1%. Total and nonspecific binding was determined in the absence and presence of 10 μM almorexant. The total volume of each reaction is 200 μL (20 μL of diluted compounds, 80 μL of [^3H]-(1-(5-(2-fluoro-phenyl)-2-methyl-thiazol-4-yl)-1-((S)-2-(5-phenyl-(1,3,4)oxadiazol-2-ylmethyl)-pyrrolidin-1-yl)-methanone) diluted in PBS and 100 μL of the cell suspension). […] The plates were washed 3 times by aspirating 30 ml PBS through the plates. Plates were dried in 55° C. oven for 60 min, scintillation fluid was added, and the radioactivity was counted on a Topcount (Packard).

A further test concerns the target rat orexin 1 receptor (Rattus norvegicus, UniProt P56718). The test is described as follows: Rat orexin 1 receptor radioligand binding. The settings on record: read-out: rOX1 Ki. The procedure: as §1, §2, §3
In a further test the target is human orexin 2 receptor (Homo sapiens (Human), UniProt O43614). Kind of test: Human orexin 2 receptor radioligand binding. The settings on record: read-out: hOX2 Ki. The protocol:
as §1
Human Orexin 2 Receptor Radioligand Binding Studies
as §3, with “HEK293 stably expressing human orexin 2 receptor (Genebank accession number NM_001526) were grown to confluency in DMEM (Hyclone, cat # SH30022), 10% FBS, 1× Pen/Strep, 1× NaPyruvate, 10 mM HEPES, 600 ug/ml G418 media on 150 cm^2 tissue culture plates, washed with 5 mM EDTA in PBS (HyClone Dulbecco's Phosphate Buffered Saline 1× with Calcium and Magnesium, Cat # SH30264.01, hereafter referred to simply as PBS) and scraped into 50 ml tubes. After” for “After”, “sec just” for “sec”, “[^3H]-EMPA” for “[^3H]-(1-(5-(2-fluoro-phenyl)-2-methyl-thiazol-4-yl)-1-((S)-2-(5-phenyl-(1,3,4)oxadiazol-2-ylmethyl)-pyrrolidin-1-yl)-methanone)”

[1] abbreviates: human orexin 1 receptor, averages of 2-20 runs.
Setting [2] is: rat orexin 1 receptor, averages of 2-20 runs.
Where [3] appears, read: human orexin 2 receptor, averages of 2-20 runs.

Like-named read-outs stand apart in the source and are kept apart here.

Sequence of human orexin 2 receptor (O43614 whole entry): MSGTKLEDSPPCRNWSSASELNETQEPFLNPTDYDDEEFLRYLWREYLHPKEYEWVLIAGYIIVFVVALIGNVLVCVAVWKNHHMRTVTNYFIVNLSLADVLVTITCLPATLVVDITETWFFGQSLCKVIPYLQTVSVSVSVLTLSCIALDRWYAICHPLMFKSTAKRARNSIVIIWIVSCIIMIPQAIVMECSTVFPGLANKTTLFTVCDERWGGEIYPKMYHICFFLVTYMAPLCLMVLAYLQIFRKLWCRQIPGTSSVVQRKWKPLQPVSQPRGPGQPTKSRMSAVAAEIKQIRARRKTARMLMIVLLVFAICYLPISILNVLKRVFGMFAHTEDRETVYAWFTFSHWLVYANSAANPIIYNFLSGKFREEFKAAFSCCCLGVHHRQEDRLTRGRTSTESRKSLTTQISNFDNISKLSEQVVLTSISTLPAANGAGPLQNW

`O=C(c1ccc(F)cc1-c1ncccn1)N1CC2CCC1C(Oc1ccc(C(F)(F)F)cn1)C2` (racemic) [Example 250, (R/S)-(4-fluoro-2-(pyrimidin-2-yl)phenyl)(6-((5-(trifluoromethyl)pyridin-2-yl)oxy)-2-azabicyclo[2.2.2]octan-2-yl)methanone]: the Ki on human orexin 1 receptor (setting [1]) stood at 24 nM; on rat orexin 1 receptor (setting [2]), 22 nM. As to `O=C(c1ccccc1-c1ncc(F)cn1)N1CC2CCC1C(Oc1ccc(C(F)(F)F)cn1)C2` (racemic) [Example 251, (R/S)-(2-(5-fluoropyrimidin-2-yl)phenyl)(6-((5-(trifluoromethyl)pyridin-2-yl)oxy)-2-azabicyclo[2.2.2]octan-2-yl)methanone], the Ki at human orexin 1 receptor (setting [1]) is 11 nM; at rat orexin 1 receptor (setting [2]) it was 18 nM. With `Cc1cccc(C(=O)N2C[C@H]3C[C@@H](Oc4ccc(C(F)(F)F)cn4)[C@@H]2C3)c1-c1ncco1` [Example 32, (3-methyl-2-(oxazol-2-yl)phenyl)((1S,4R,6R)-6-((5-(trifluoromethyl)pyridin-2-yl)oxy)-2-azabicyclo[2.2.1]heptan-2-yl)methanone], the Ki on human orexin 1 receptor (setting [1]) is 6 nM.

In the case of `Cc1ccc(C(=O)N2C[C@H]3C[C@@H](Oc4ccc(C(F)(F)F)cn4)[C@@H]2C3)c(-n2ccnn2)n1` [Example 34, (6-methyl-2-(1H-1,2,3-triazol-1-yl)pyridin-3-yl)((1S,4R,6R)-6-((5-(trifluoromethyl)pyridin-2-yl)oxy)-2-azabicyclo[2.2.1]heptan-2-yl)methanone], the Ki on human orexin 1 receptor (setting [1]) was 368 nM; on rat orexin 1 receptor (setting [2]), 162 nM. Consider `O=C(c1ccccc1-n1nccn1)N1C[C@H]2C[C@@H](Oc3ccc(C(F)(F)F)cn3)[C@@H]1C2` [Example 36, (2-(2H-1,2,3-triazol-2-yl)phenyl)((1S,4R,6R)-6-((5-(trifluoromethyl)pyridin-2-yl)oxy)-2-azabicyclo[2.2.1]heptan-2-yl)methanone], for which the Ki on human orexin 1 receptor (setting [1]) turned out to be 13 nM. `O=C(c1c(F)cccc1-c1ncccn1)N1C[C@H]2C[C@@H](Oc3ccc(Br)cn3)[C@@H]1C2` [Example 47, ((1S,4R,6R)-6-((5-bromopyridin-2-yl)oxy)-2-azabicyclo[2.2.1]heptan-2-yl)(2-fluoro-6-(pyrimidin-2-yl)phenyl)methanone]: the Ki on human orexin 1 receptor (setting [1]) is 9 nM; on rat orexin 1 receptor (setting [2]), 6 nM. On to `O=C(c1ccccc1-n1nccn1)N1C[C@H]2C[C@@H](Nc3ccc(C(F)(F)F)cn3)[C@@H]1C2` [Example 53, (2-(2H-1,2,3-triazol-2-yl)phenyl)((1S,4S,6R)-6-((5-(trifluoromethyl)pyridin-2-yl)amino)-2-azabicyclo[2.2.1]heptan-2-yl)methanone], for which the Ki on human orexin 1 receptor (setting [1]) is 4 nM.

For `Cc1ccc(-n2nccn2)c(C(=O)N2C[C@H]3C[C@@H](Nc4ccc(C(F)(F)F)cn4)[C@@H]2C3)n1` [Example 54, (6-methyl-3-(2H-1,2,3-triazol-2-yl)pyridin-2-yl)((1S,4S,6R)-6-((5-(trifluoromethyl)pyridin-2-yl)amino)-2-azabicyclo[2.2.1]heptan-2-yl)methanone], the values for the Ki at human orexin 1 receptor and at rat orexin 1 receptor were 5 nM and 6 nM, respectively. For `Cc1ccc(-c2ncccn2)c(C(=O)N2C[C@H]3C[C@@H](Oc4ccc(C(F)(F)F)nn4)[C@@H]2C3)n1` [Example 142, (6-methyl-3-(pyrimidin-2-yl)pyridin-2-yl)((1S,4R,6R)-6-((6-(trifluoromethyl)pyridazin-3-yl)oxy)-2-azabicyclo[2.2.1]heptan-2-yl)methanone], the inhibition constant (Ki) at human orexin 2 receptor (setting [3]) was 7.9 µM; at rat orexin 1 receptor (setting [2]), 376 nM. The like results for `CN(c1ccc(C(F)(F)F)cn1)[C@@H]1C[C@H]2C[C@@H]1N(C(=O)c1cccc(F)c1-c1ncccn1)C2` [Example 157, (3-fluoro-2-(pyrimidin-2-yl)phenyl)((1S,4S,6R)-6-(methyl(5-(trifluoromethyl)pyridin-2-yl)amino)-2-azabicyclo[2.2.1]heptan-2-yl)methanone] were, in that order, 0.351 µM and 6 nM. On the same counts, the results for `CC(=O)N(c1ccc(C(F)(F)F)cn1)[C@@H]1C[C@H]2C[C@@H]1N(C(=O)c1cccc(F)c1-c1ncccn1)C2` [Example 162, N-((1S,4R,6R)-2-(3-fluoro-2-(pyrimidin-2-yl)benzoyl)-2-azabicyclo[2.2.1]heptan-6-yl)-N-(5-(trifluoromethyl)pyridin-2-yl)acetamide] are more than 10 µM and more than 10000 nM. On to `O=C(c1cc(F)ccc1-c1ncccn1)N1C[C@H]2C[C@@H](Nc3ccc(Cl)cn3)[C@@H]1C2` [Example 172, ((1S,4S,6R)-6-((5-chloropyridin-2-yl)amino)-2-azabicyclo[2.2.1]heptan-2-yl)(5-fluoro-2-(pyrimidin-2-yl)phenyl)methanone], for which the inhibition constant Ki on human orexin 1 receptor (setting [1]) amounted to 7 nM; on rat orexin 1 receptor (setting [2]), 8 nM. With `COC(=O)c1cnc(N[C@@H]2C[C@H]3C[C@@H]2N(C(=O)c2ccccc2-n2nccn2)C3)cn1` [Example 221, methyl 5-(((1S,4S,6R)-2-(2-(2H-1,2,3-triazol-2-yl)benzoyl)-2-azabicyclo[2.2.1]heptan-6-yl)amino)pyrazine-2-carboxylate], the Ki at human orexin 2 receptor (setting [3]) was determined as 3 µM; on rat orexin 1 receptor (setting [2]), 2100 nM. With `O=C(c1cccnc1-n1nccn1)N1C[C@H]2C[C@@H](Nc3ncc(C(F)(F)F)cn3)[C@@H]1C2` [Example 222, (2-(2H-1,2,3-triazol-2-yl)pyridin-3-yl)((1S,4S,6R)-6-((5-(trifluoromethyl)pyrimidin-2-yl)amino)-2-azabicyclo[2.2.1]heptan-2-yl)methanone], the Ki at human orexin 2 receptor (setting [3]) is more than 10 µM; at rat orexin 1 receptor (setting [2]), 261 nM. On the same counts, the results for `CCOc1ccc(C)nc1C(=O)N1C[C@H]2C[C@@H](Nc3ncc(C(F)(F)F)cn3)[C@@H]1C2` [Example 233, (3-ethoxy-6-methylpyridin-2-yl)((1S,4S,6R)-6-((5-(trifluoromethyl)pyrimidin-2-yl)amino)-2-azabicyclo[2.2.1]heptan-2-yl)methanone] are 1.1 µM and 280 nM.

For the molecule `O=C(c1ccc(F)cc1-c1ncccn1)N1C[C@@H]2CC[C@H]1[C@H](Oc1ccc(C(F)(F)F)cn1)C2` [Example 259, (4-fluoro-2-(pyrimidin-2-yl)phenyl)((1S,4R,6R)-6-((5-(trifluoromethyl)pyridin-2-yl)oxy)-2-azabicyclo[2.2.2]octan-2-yl)methanone], the figures for the Ki at human orexin 1 receptor (setting [1]) and on rat orexin 1 receptor (setting [2]) were 19 nM and 16 nM, respectively. For `O=C(c1ccccc1-n1nccn1)N1C[C@@H]2CC[C@H]1[C@H](Nc1cnc(C(F)(F)F)cn1)C2` [Example 275, (2-(2H-1,2,3-triazol-2-yl)phenyl)((1S,4R,6R)-6-((5-(trifluoromethyl)pyrazin-2-yl)amino)-2-azabicyclo[2.2.2]octan-2-yl)methanone], the values for the Ki at human orexin 2 receptor and on rat orexin 1 receptor were 0.175 µM and 8 nM, respectively.

Regarding `O=C(c1cccc(F)c1-c1ncccn1)N1C[C@H]2CC[C@@H]1[C@@H](Nc1cnc(C(F)(F)F)cn1)C2` [Example 276, (3-fluoro-2-(pyrimidin-2-yl)phenyl)((1R,4S,6S)-6-((5-(trifluoromethyl)pyrazin-2-yl)amino)-2-azabicyclo[2.2.2]octan-2-yl)methanone], the Ki on human orexin 2 receptor (setting [3]) is more than 10 µM; on rat orexin 1 receptor (setting [2]), 2700 nM. The like results for `Cc1ccc(-n2nccn2)c(C(=O)N2C[C@H]3C[C@@H](Oc4ccc5cccnc5n4)[C@@H]2C3)n1` [Example 286, ((1S,4R,6R)-6-((1,8-naphthyridin-2-yl)oxy)-2-azabicyclo[2.2.1]heptan-2-yl)(6-methyl-3-(2H-1,2,3-triazol-2-yl)pyridin-2-yl)methanone] were, in that order, 3.1 µM and 822 nM.

(Values after patent US9611277B2 (Janssen Pharmaceutica NV, priority 2013, dated 2017).)
